Assay results taken from patent publication US11053258B2, “Pyrimidine carboxamides as GSK-3 inhibitors” (BRISTOL-MYERS SQUIBB COMPANY, priority 2016, dated 2021).
“And” between values parts separate entries of the source, which are not always exact repeats. Equal values may be shown once. Read-outs that look alike come from different tables or passages of the source.

Legend:
[1] = from C=CCN1CCN(c2cc(F)ncc2NC(=O)c2ccnc(NCC(C)(O)CC=C)n2)CC1; rcm bond; 18-membered ring; Zhan 1B; ClCH2CH2Cl; 4.5 mM; 70.0 °C; 1.5 h
GSK3β = GSK3β (Homo sapiens, UniProt P49841); test: GSK3β kinase assay (Caliper LabChip3000, fluoresceinated peptide substrate); format: biochemical; conditions: first value of cell; 250 pM enzyme, 20 uM ATP, 20 hours room temperature; read-out: GSK3β/α (nM): GSK3β IC50
GSK3β, sequence (P49841 whole entry, species assumed): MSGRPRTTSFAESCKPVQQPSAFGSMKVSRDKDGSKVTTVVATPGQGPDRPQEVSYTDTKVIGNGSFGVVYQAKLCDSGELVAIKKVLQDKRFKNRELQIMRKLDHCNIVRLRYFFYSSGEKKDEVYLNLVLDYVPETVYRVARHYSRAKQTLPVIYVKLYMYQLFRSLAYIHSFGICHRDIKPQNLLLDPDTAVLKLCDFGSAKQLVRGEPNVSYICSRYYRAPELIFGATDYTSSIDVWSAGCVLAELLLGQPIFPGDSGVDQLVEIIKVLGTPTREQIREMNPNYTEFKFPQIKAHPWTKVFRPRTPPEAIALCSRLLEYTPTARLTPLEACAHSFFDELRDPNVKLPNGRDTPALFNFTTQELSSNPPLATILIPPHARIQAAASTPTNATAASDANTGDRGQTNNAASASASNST
Protocol: (§1) The kinase assay was performed in V-bottom 384-well plates. The final assay volume was 30 μl prepared from 15 μl additions of enzyme, substrates (fluoresceinated peptide FL-KRREILSRRP[ps]ERYR-NH2 and ATP) and test compounds in assay buffer (100 mM HEPES pH 7.4, 10 mM MgCl2, 25 mM Beta-Glycerolphosphate, 0.015% Brij35 and 0.25 mM DTT). The reaction was incubated at room temperature for 20 hours and terminated by adding 45 μl of 35 mM EDTA to each sample. The reaction mixture was analyzed on the Caliper LabChip3000 (Caliper, Hopkinton, Mass.) by electrophoretic separation of the unphosphorylated substrate and phosphorylated product. Inhibition data were calculated by comparison of the no enzyme control reactions for 100% inhibition and vehicle-only reactions for 0% inhibition. The final concentration of reagents in the assay were 250 pM GSK3α or GSK3β, 20 uM ATP, 1.5 uM FL-KRREILSRRP[ps]ERYR-NH2, and 1.6% DMSO. Dose response curves were generated to determine the concentration required to inhibit 50% of the kinase activity (IC50). Compounds were dissolved at 10 mM in dimethylsulfoxide (DMSO) and evaluated at eleven concentrations. IC50 values were derived by non-linear regression analysis.

GSK3α = GSK3α (Homo sapiens, UniProt P49840); test: GSK3α kinase assay (Caliper LabChip3000, fluoresceinated peptide substrate); format: biochemical; conditions: second value of cell; 250 pM enzyme, 20 uM ATP, 20 hours room temperature; read-out: GSK3β/α (nM): GSK3α IC50
GSK3α, sequence (P49840 whole entry, species assumed): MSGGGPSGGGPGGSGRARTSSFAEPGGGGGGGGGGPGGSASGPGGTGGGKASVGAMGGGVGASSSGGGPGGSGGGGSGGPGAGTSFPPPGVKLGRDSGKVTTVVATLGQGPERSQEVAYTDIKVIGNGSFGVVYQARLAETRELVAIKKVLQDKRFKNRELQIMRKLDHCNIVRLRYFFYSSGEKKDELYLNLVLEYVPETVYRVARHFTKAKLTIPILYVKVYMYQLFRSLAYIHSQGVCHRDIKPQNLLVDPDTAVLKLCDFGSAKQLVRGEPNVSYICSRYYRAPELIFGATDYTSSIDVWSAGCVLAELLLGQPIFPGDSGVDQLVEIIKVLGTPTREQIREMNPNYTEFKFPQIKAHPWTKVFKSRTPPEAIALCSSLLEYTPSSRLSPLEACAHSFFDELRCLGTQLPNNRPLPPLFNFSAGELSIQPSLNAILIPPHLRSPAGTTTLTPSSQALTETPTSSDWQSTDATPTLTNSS
Protocol: as §1

pTau = pTau assay; format: cell-based
[2] = rcm bond, ClCH2CH2Cl, 70.0 °C

| IC50 (GSK3β) | IC50 (GSK3α) | IC50 (pTau) | Structure (SMILES) | ring closure, yield after HPLC [1] | ring closure, isolated yield ([2]; from C=CCCC(O)CNc1nccc(C(=O)Nc2cnc(F)cc2N2CCN(CC=C)CC2)n1, 19-membered ring, Zhan 1B (30 mol%), 5.17 mM, 3.0 h) | ring closure, isolated yield ([2]; from C=CCCOc1ccncc1NC(=O)c1ccnc(NCC=C)n1, 14-membered ring, Zhan 1B (50 mol%), 4.55 mM, 2.0 h) |
| --- | --- | --- | --- | --- | --- | --- |
| – | – | – | CC1(O)CC=CCN2CCN(CC2)c2cc(F)ncc2NC(=O)c2ccnc(n2)NC1 (stereo not drawn) | 37% | – | – |
| 14.7 nM | 17.5 nM | 1870 nM | O=C1Nc2cnc(F)cc2N2CCN(CC=CCCC(O)CNc3nccc1n3)CC2 (single isomer, unassigned) [Example 28, (E)-2^6-fluoro-8-hydroxy-3,6-diaza-5(4,2)-pyrimidina-1(1,4)-piperazina-2(4,3)-pyridinacyclotridecaphan-11-en-4-one] | – | 22% and 13% | – |
| 13.5 nM | 12.1 nM | 1500 nM | O=C1Nc2cnccc2OCCC=CCNc2nccc1n2 (mixture of isomers) [Example 5, 5-Oxa-3,11-diaza-1(4,2)-pyrimidina-4(3,4)-pyridinacycloundecaphan-8-en-2-one] | – | – | 34% |
